How the values were obtained:
IPNS = biological target: T1, IPNS (Aspergillus nidulans, UniProt P05326); experiment: room-temperature serial crystallography; type: binding; conditions: anaerobic, Fe(II); cysteinyl sulfur ligates Fe
T1 construct: gene ipnA; recombinant, purified as in Roach et al; Fe(II) enzyme, microcrystals
T1 sequence (P05326 1-331): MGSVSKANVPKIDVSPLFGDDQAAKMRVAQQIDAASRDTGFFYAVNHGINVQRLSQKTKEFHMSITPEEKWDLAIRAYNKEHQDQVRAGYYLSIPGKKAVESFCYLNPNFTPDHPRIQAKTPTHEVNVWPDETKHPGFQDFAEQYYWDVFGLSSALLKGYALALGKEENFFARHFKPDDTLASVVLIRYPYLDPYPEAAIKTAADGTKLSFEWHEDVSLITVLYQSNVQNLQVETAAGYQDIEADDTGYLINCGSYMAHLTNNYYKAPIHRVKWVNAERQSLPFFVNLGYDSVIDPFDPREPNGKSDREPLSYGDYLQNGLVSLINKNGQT

VioC = biological target: T2, VioC (Streptomyces vinaceus, UniProt Q6WZB0); experiment: room-temperature serial crystallography; type: binding; conditions: Fe(II)
T2 construct: codon-optimized, pNIC28-Bsa4, E. coli T7 LysY; His-tag cleaved with TEV protease; SEC purified; Fe(II) enzyme, microcrystals
T2 sequence (Q6WZB0 whole entry): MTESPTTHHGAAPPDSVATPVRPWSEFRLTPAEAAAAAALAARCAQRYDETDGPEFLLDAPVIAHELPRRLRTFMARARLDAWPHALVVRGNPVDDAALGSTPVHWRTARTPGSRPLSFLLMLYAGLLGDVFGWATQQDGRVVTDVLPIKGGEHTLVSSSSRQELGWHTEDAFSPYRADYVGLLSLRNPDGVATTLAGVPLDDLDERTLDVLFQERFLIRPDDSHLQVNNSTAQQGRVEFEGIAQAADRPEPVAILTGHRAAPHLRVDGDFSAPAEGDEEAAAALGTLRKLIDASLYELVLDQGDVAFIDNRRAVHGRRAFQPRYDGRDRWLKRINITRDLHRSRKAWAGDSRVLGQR

CC(C)[C@@H](NC(=O)[C@H](CS)NC(=O)CCC[C@H](N)C(=O)O)C(=O)O [ACV] was tested, and the room-temperature serial crystallography (IPNS) was “completed by a water molecule and the cysteinyl sulfur of the substrate ACV”.
With N=C(N)NCCC[C@H](N)C(=O)O [L-arginine] the room-temperature serial crystallography (VioC; anaerobic, 2OG, active site) was “VioC:Fe:2OG:Arg substrate complex structure reported in this study (PDB entry 6y0n)”.
For N=C(N)NCC[C@H](O)[C@H](N)C(=O)O [(3S)-OH-Arg], the room-temperature serial crystallography (VioC; formed in crystallo after 1 h air exposure, succinate, active site) was “the (3S)-OH-Arg is positioned to coordinate Fe via its (3S)-hydroxyl group”.
In the case of O=C(O)CCC(=O)O [succinate], the room-temperature serial crystallography (VioC; formed in crystallo after 1 h air exposure, (3S)-OH-Arg, monodentate to Fe) was “succinate is bound in a monodentate manner, also trans to His168”.
For O=C(O)CCC(=O)C(=O)O [2OG], the room-temperature serial crystallography (VioC; anaerobic, L-arginine, bidentate to Fe) was “the 2OG ligates the Fe in a bidentate manner via its oxalyl group”.

From paper PMC7467159, “Anaerobic fixed-target serial crystallography” (IUCrJ, 2020)
